Results reported in patent US20020064847A1, “NOVEL SECONDARY ALCOHOL DEHYDROGENASE, PROCESS FOR PREPARING SAID ENZYME, AND PROCESS FOR PREPARING ALCOHOLS AND KETONES USING SAID ENZYME” (priority 1996, published 2002).
Entries after “also recorded” stand apart in the source; their conditions may differ. Read-outs that look alike come from different tables or passages of the source.

How the values were obtained:
[1] = system: secondary alcohol dehydrogenase; assay: Substrate specificity, oxidation reaction; format: biochemical, Geotrichum candidum IFO 4601; details: coenzyme NAD+, (S)-1,3-butanediol-oxidizing activity = 100
Protocol: (§1) In the present invention, secondary alcohol dehydrogenase activity was determined by allowing the enzyme to react in the reaction mixture containing potassium phosphate buffer (pH 8.0, 50 μmol), 2.5 μmol NAD^+, and 50μmol (S)-1,3-butanediol at 30° C. and measuring an increase of absorbance at 340 nm resulting from generation of NADH. One unit was defined as the amount of enzyme catalyzing generation of 1μmol of NADH per minute.
(§2) The secondary alcohol dehydrogenase was reacted with various alcohols and aldehydes. Its oxidation and reduction activities are shown in Table 1 as relative activities to (S)-1,3-butanediol-oxidizing activity and 4-hydroxy-2-butanone-reducing activity that are taken as 100.

[2] = system: secondary alcohol dehydrogenase; assay: Behavior of the secondary alcohol dehydrogenase to inhibitors (residual activity); format: biochemical, Geotrichum candidum IFO 4601; details: for Residual activity: 30° C. for 10 minutes
Protocol: as §1
The secondary alcohol dehydrogenase was treated with various reagents at 30° C. for 10 minutes.

[3] = system: secondary alcohol dehydrogenase; assay: Substrate specificity, reduction reaction; format: biochemical, Geotrichum candidum IFO 4601; details: 4-hydroxy-2-butanone-reducing activity = 100
Protocol: The secondary alcohol dehydrogenase was examined for its activity of oxidation of (S)-1,3-butanediol and that of reduction of 4-hydroxy-2-butanone [which was measured under the same conditions as those used for measuring activity of oxidation of (S)-1,3-butanediol except for using NADH (0.4 μmol) instead of NAD^+] at different pHs using potassium-phosphate buffer (KPB), Tris-HCl buffer and Britten-Robinson buffer by measuring the decrease of absorbance at 340 nm accompanied with reduction of the amount of NADH. The activity is shown in FIGS. 3 and 4 as relative activity with taking the maximal activity as 100. The optimum pH in the reaction was 8.0-9.0 in the case of the oxidation of (S)-1,3-butanediol (FIG. 3) and 7.0 in the case of the reduction of 4-hydroxy-2-butanone (FIG. 4).
as §2

[4] = system: secondary alcohol dehydrogenase; assay: Substrate specificity, oxidation reaction; format: biochemical, Geotrichum candidum IFO 4601; details: substrate 50 mM, coenzyme NADP+, (S)-1,3-butanediol-oxidizing activity = 100
[5] = system: secondary alcohol dehydrogenase; assay: Enzyme kinetic analysis; format: biochemical, Geotrichum candidum IFO 4601
Protocol: as §1
The reaction rate constants of the purified secondary alcohol dehydrogenase to the following substrates were measured.

[6] = biological target: primary alcohol dehydrogenase (SADH 1) (Saccharomyces cerevisiae, UniProt P00330); details: SADH 1 from Saccharomyces cerevisiae; cited from earlier work
[7] = substrate 100 mM, coenzyme NADH

Sequence of primary alcohol dehydrogenase (SADH 1) (P00330 whole entry): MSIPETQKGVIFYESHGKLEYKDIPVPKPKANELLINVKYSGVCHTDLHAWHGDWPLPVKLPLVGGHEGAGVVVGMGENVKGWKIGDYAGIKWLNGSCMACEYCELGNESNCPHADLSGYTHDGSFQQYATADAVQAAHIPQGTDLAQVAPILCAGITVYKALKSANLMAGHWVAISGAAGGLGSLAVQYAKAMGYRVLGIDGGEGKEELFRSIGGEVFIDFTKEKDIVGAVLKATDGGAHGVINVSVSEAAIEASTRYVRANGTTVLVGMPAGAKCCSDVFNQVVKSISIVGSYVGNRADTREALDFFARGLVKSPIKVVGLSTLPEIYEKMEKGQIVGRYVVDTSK

## 1-butanol
[1]; substrate 100 mM
  Relative activity: 12.9%

## 1-propanol
[1]; substrate 100 mM
  Relative activity: 15.5%

## O[C@H](CS)[C@H](O)CS (racemic) [dithiothreitol]
[2]; inhibitor 1.0 mM
  Residual activity: 42.9%

## CCC(C)=O [2-butanone]
[3]; [7]
  Relative activity: 20.2%

## OCCS [2-mercaptoethanol]
[2]
  Inhibition of the enzyme (in words): markedly inhibited
[2]; inhibitor 0.01 mM
  Residual activity: 6.8%
[2]; listed as 2-mercaptethanol
  Inhibition of the enzyme (in words): inhibited

## CC(C)O [2-propanol]
[1]; substrate 100 mM
  Relative activity: 96.8%

## CC(=O)CCO [4-hydroxy-2-butanone]
[3]; substrate 20 mM, coenzyme NADH
  Relative activity: 100%
[3]; substrate 20 mM, coenzyme NADPH
  Relative activity: 0%

## C[C@@H](O)CO [(R)-1,2-propanediol]
[1]; substrate 50 mM
  Relative activity: 10.4%

## C[C@@H](O)CCO [(R)-1,3-butanediol]
[4]
  Relative activity: 8.8%
[5]; (S)- versus (R)-1,3-butanediol
  E value: 33.0
[5]; purified enzyme
  Vmax: 4.43 U/mg of protein

## C[C@@H](O)c1ccccc1 [(R)-1-phenylethanol]
[1]; substrate 50 mM
  Relative activity: 19.2%

## CCCCCC[C@@H](C)O [(R)-2-octanol]
[1]; substrate 5 mM
  Relative activity: 13.3%

## C[C@H](O)CO [(S)-1,2-propanediol]
[1]; substrate 50 mM
  Relative activity: 23.8%

## C[C@H](O)CCO [(S)-1,3-butanediol]
[4]
  Relative activity: 2.4%
[5]; purified enzyme
  Km: 41.4 mM
  Vmax: 36.7 U/mg of protein
[1]; substrate 50 mM
  Relative activity: 100%

## C[C@H](O)c1ccccc1 [(S)-1-phenylethanol]
[1]; substrate 50 mM
  Relative activity: 267%

## CCCCCC[C@H](C)O [(S)-2-octanol]
[1]; substrate 5 mM
  Relative activity: 187%

## CC(C)=O [acetone]
[3]; [7]
  Relative activity: 164%

## CC(=O)c1ccccc1 [acetophenone]
[3]; substrate 20 mM, coenzyme NADH
  Relative activity: 122%

## C=CCO [allyl alcohol]
[1]; substrate 100 mM
  Relative activity: 18.7%

## [Cl][Co][Cl] [cobalt chloride]
[2]; inhibitor 1.0 mM
  Residual activity: 81.0%

## O=S(=O)([O-])[O-].[Cu+2] [copper sulfate]
[2]; inhibitor 1.0 mM
  Residual activity: 71.5%

## OC1CCCCC1 [cyclohexanol]
[1]; substrate 20 mM
  Relative activity: 90.4%

## CCO [ethanol]
[1]; substrate 100 mM
  Relative activity: 10.7%

## CCOC(=O)CC(C)=O [ethyl acetoacetate]
[3]; [7]
  Relative activity: 96.8%

## O=C(O)CN(CCN(CC(=O)O)CC(=O)O)CC(=O)O [ethylenediaminetetraacetic acid]
[2]
  Inhibition of the enzyme (in words): inhibited
[2]; inhibitor 1.0 mM
  Residual activity: 63.5%
[2]; inhibitor 10 mM
  Residual activity: 9.8%

## OCC(O)CO [glycerol]
[1]; substrate 50 mM
  Relative activity: 0%

## NC(=O)CI [iodoacetamide]
[2]
  Inhibition of the enzyme (in words): perfectly inhibited; also recorded: markedly inhibited
[2]; inhibitor 1.0 mM
  Residual activity: 2.4%

## [Cl][Hg][Cl] [mercuric chloride]
[2]
  Inhibition of the enzyme (in words): markedly inhibited
[2]; inhibitor 1.0 mM
  Residual activity: 0.0%
[2]; listed as mercury chloride
  Inhibition of the enzyme (in words): inhibited

## CO [methanol]
[1]; substrate 100 mM
  Relative activity: 60.8%

## COC(=O)C[C@@H](C)O [methyl (R)-3-hydroxybutyrate]
[1]; substrate 50 mM
  Relative activity: 22.1%

## COC(=O)C[C@H](C)O [methyl (S)-3-hydroxybutyrate]
[1]; substrate 50 mM
  Relative activity: 138%

## O=C(O)c1cc[c]([Hg][Cl])cc1 [p-chloromercuribenzoic acid]
[2]
  Inhibition of the enzyme (in words): perfectly inhibited
[2]; inhibitor 0.05 mM
  Residual activity: 0.0%
[2]; listed as parachloromercuribenzoic acid
  Inhibition of the enzyme (in words): markedly inhibited

## [Cl-].[Cl-].[Zn+2] [zinc chloride]
[2]
  Inhibition of the enzyme (in words): markedly inhibited
[2]; inhibitor 10 mM
  Residual activity: 0.9%

## (R)-2-butanol
[1]; substrate 50 mM
  Relative activity: 60.0%

## (RS)-2-butanol
[6]
  Activity relative to ethanol: approximately 1%
[1]; substrate 100 mM
  Relative activity: 85.9%

## (S)-2-butanol
[1]; substrate 50 mM
  Relative activity: 112%
